Test results taken from US20250288572A1, “COMPOSITIONS AND METHODS FOR TREATING PULMONARY VASCULAR DISEASE” (UNIVERSITY OF PITTSBURGH-OF THE COMMONWEALTH SYSTEM OF …, priority 2022, published 2025).
Entries after “also recorded” stand apart in the source; their conditions may differ.

Assays:
[1] = system: monocrotaline-exposed pulmonary arterial hypertension rats; assay: Monocrotaline (MCT) pulmonary arterial hypertension rat model, dosing Days 12-26
Procedure: Measurement of GST activity: The GST activity from lung tissue and PAECs was assayed using GST assay kit (Cayman, MI, USA) per the manufacturer's instructions.

PAECs [2] = assay: RT-qPCR gene expression in PAECs; format: cell-based, human
Procedure: The hypoxia chamber (modular incubator chamber) was obtained from Billups-Rothenberg Inc. (Del Mar, Cali) and placed in regulated CO2 incubator at 37° C.
RT-qPCR analysis: Cells were lysis in 1 ml of QiaZol reagent (Qiagen). Total RNA content was extracted using the RNeasy kit (Qiagen), according to the manufacturer's instructions. Total RNA concentration was determined using a BioTek Synergy multimode plate reader. Messenger RNAs were reverse transcribed to generate cDNA using the Multiscript RT kit (Thermo Fisher Scientific). cDNA for specific gene targets was amplified and quantified via fluorescently-labeled Taqman primer sets and Taqman fast advanced master mix (Thermo Fisher Scientific) using an Applied Biosystems QuantStudio 6 Flex Real-Time PCR System.

ISCU [3] = assay: Immunoprecipitation/immunoblot of glutathionylated ISCU in PAECs; format: cell-based, human; set-up: dose or concentration left out as unconfirmed; settings: hypoxic PAECs, BRD2889 (24 h)
Procedure: Immunoblot and densitometry: Cells were lysed in RIPA buffer (Sigma) along with 1× protease inhibitor cocktail (Sigma). Protein lysate was resolved by gradient 4%-15% SDS-PAGE gels and transferred onto a 0.2 μm PVDF membrane (Bio-Rad). Membranes were blocked in 5% non-fat milk in 1×PBST buffer for one hour at room temperature. Later, they were incubated in the presence of the primary antibody overnight at 4° C., and then appropriate HRP-conjugated secondary antibodies (Life Technologies). The following antibodies were used: human LGALS8 (AF1305, RnD Systems), mouse/rat Lgals8 ([…], Abcam), pSTAT1 (ab29045, Abcam) and STAT1 (ab47425, Abcam), GSTP1 (ab153949, Abcam), ISCU (14812-1-AP, Pointech), Glutathione (ab19534, Abcam), HIF2A (NB100-122, Novous), α-Tubulin (CP06, Millipore sigma), and ACTB (sc-47778, Santa Cruz). […] The images were later quantified using AlphaEaseFC software (Alpha Innotech).
Immunoprecipitation: PAECs were transfected with the indicated combinations of siRNAs by Lipofectamine 2000 (Thermo Fisher Scientific) according to the manufacturer's instructions and/or treated with BRD2889 ([…], 24 h). […] After extensive washing, the immunoprecipitated proteins were analyzed by immunoblotting with the indicated antibodies.

hypoxic IL-6 Tg mice = assay: Chronically hypoxic IL-6 transgenic PAH mouse model; format: in vivo, IL-6 transgenic mice (C57B/6 background)
Procedure: Pulmonary-specific IL-6 transgenic mice (C57B/6 background) were described previously (Steiner M K et al. Circ Res. 2009, 104, 236-244, 228p following 244). These mice were bred in house, and 12 week old male transgenic mice vs. control littermates were compared. Mice were injected i.p. every 3 days with vehicle control (2.5% DMSO) vs. BRD2889 (5 mg/kg vs. […] Circ Res. 2009, 104, 236-244, 228p following 244).
Rodent echocardiography: Echocardiography was performed using a 15-45M Hz transthoracic transducer and a Visual Sonics Vevo 3100 system (Fujifilm). Inhaled isoflurane anesthesia was used at 2% in 100% 02 during positioning and hair removal and then decreased to isoflurane 0.8% during imaging.

PASMCs = assay: Apoptosis (caspase 3/7) in PASMCs; format: cell-based, human; settings: IL-6/sIL-6R + hypoxia
Procedure: (§1) BRD2889 (1 uM) vs. vehicle control were added, as indicated, and placed into a hypoxia chamber for 24 h. The hypoxia chamber (modular incubator chamber) was obtained from Billups-Rothenberg Inc. (Del Mar, Cali) and placed in regulated CO2 incubator at 37° C.
Cellular apoptosis: Caspase-3/7 activity was quantified using the Caspase-Glo 3/7 Assay (Promega), according to manufacturer's instructions. Caspase-3/7 activity was normalized to total protein content determined by BCA method (Thermo Fisher Scientific).

PAECs [4] = assay: BrdU growth (proliferation) assay in PAECs; format: cell-based, human
Procedure: BrdU growth assay: Cell proliferation was assayed relative to day 0 using a BrdU Cell Proliferation Assay Kit (#6813, Cell Signaling) according to the manufacturer's protocol after incubation for 2 h with BrdU.

mitochondrial Complex 1 [5] = assay: Mitochondrial Complex 1 activity in PASMCs; format: cell-based, human; settings: IL-6/sIL-6R + hypoxia
Procedure: as §1
(§2) Measurement of mitochondrial complex activities: Complex 1 activity of isolated mitochondria were measured using Complex 1 Enzyme Activity Microplate assay kit (Abcam, ab109721) according to the manufacturer's protocol. These enzymes were captured within the wells of the microplate coated by the corresponding complex enzyme antibody, and activities were detected colorimetrically.

ISCU [6] = assay: Immunoblot and densitometry of ISCU and GSTP1 in PAECs; format: cell-based, human
Procedure: as §1
Immunoblot and densitometry: Cells were lysed in RIPA buffer (Sigma) along with 1× protease inhibitor cocktail (Sigma). Protein lysate was resolved by gradient 4%-15% SDS-PAGE gels and transferred onto a 0.2 μm PVDF membrane (Bio-Rad). Membranes were blocked in 5% non-fat milk in 1×PBST buffer for one hour at room temperature. Later, they were incubated in the presence of the primary antibody overnight at 4° C., and then appropriate HRP-conjugated secondary antibodies (Life Technologies). The following antibodies were used: human LGALS8 (AF1305, RnD Systems), mouse/rat Lgals8 ([…], Abcam), pSTAT1 (ab29045, Abcam) and STAT1 (ab47425, Abcam), GSTP1 (ab153949, Abcam), ISCU (14812-1-AP, Pointech), Glutathione (ab19534, Abcam), HIF2A (NB100-122, Novous), α-Tubulin (CP06, Millipore sigma), and ACTB (sc-47778, Santa Cruz). The immunoreactive bands were visualized with the Chemidoc XRS+ system (Bio-Rad) using SuperSignal West Femto chemiluminescent substrates (Thermo Fisher Scientific). The images were later quantified using AlphaEaseFC software (Alpha Innotech).

mitochondrial Complex 1 [7] = assay: Mitochondrial Complex 1 activity in PAECs; format: cell-based, human
Procedure: as §2

[8] = system: glutathione S-transferase (GST); assay: Measurement of GST activity in PASMCs; format: cell-based, human; settings: IL-6/sIL-6R + hypoxia, BRD2889 1 uM
Procedure: as §1

[9] = I-BET762 30 mg/kg daily i.p. or BRD2889 5 mg/kg i.p. every 5 days, Days 12-26
[10] = BRD2889 10 mg/kg vs vehicle, 10 days, 10 mg/kg
[11] = BRD2889 5 and 10 mg/kg i.p. every three days
[12] = hypoxic PAECs with siRNA knockdown of ISCU
[13] = PAECs, IL-6/sIL-6R + hypoxia, BRD2889 1 uM

In the case of `COc1ccc(C#CC2CCCN(C(=O)/C=C/c3cc(OC)c(OC)c(OC)c3)C2=O)cc1` (centres unmarked) [BRD2889, (E)-3-((4-methoxyphenyl)ethynyl)-1-(3-(3,4,5-trimethoxyphenyl)acryloyl)piperidin-2-one], the “endothelial ISCU (immunofluorescence)” value ([1]; BRD2889 5 mg/kg i.p. every 5 days) was “increased”, the “lung GST activity” value ([1]; BRD2889 5 mg/kg i.p. every 5 days, 5 mg/kg) was “reduced; also recorded: decreased” and the “transcript levels of injury markers of liver (Got, Gpt1), kidney (Cst3, Lcn2), intestines (Ldha), tissue toxicity” value ([1]; BRD2889 vs VC, RT-qPCR) was “no indication of overt tissue toxicities”. For the same compound, the “Fulton index (RV/LV+S)” value [1, 9] was “reducing; also recorded: reduced”, the “arteriolar muscularization (α-SMA)” value [1, 9] was “reducing; also recorded: reduced” and the “cleaved caspase-3 (CC-3), endothelial apoptosis” value [1, 9] was “reducing; also recorded: decreased”. The “right ventricular systolic pressure (RVSP)” value [1, 9] was “reducing; also recorded: reduced”, the “aortic blood pressure (mean arterial pressure, MAP)” value ([1]; vs vehicle control) was “without significant alterations” and the heart rate ([1]; vs vehicle control) was “without significant alterations”. For the same compound, the “inflammatory gene transcripts (EDN1, VCAM1, ICAM1)” value (PAECs [2]; IL-6/sIL-6R + hypoxia) was “normalized this upregulation”, the ISCU transcript (PAECs [2]; hypoxia 48 hrs, BRD2889 5 uM) was “fully reversing the hypoxic decrease of ISCU; also recorded: rescued by BRD2889” and the “expression of C43 genes MID2, BANP, AGTRAP” value (PAECs [2]; hypoxia 48 hrs, BRD2889 5 uM) was “unaffected in hypoxia by BRD2889”. For the same compound, the mTOR transcript (PAECs [2]; hypoxia 48 hrs, BRD2889 5 uM) was “partially reversing the decrease of mTOR; also recorded: rescued by BRD2889”, the “ISCU glutathionylation (α-GSH immunoblot after α-ISCU pulldown)” value (ISCU [3]) was “converse reduction of glutathionylation; also recorded: reversed these findings; also recorded: reversal of the hypoxic induction of ISCU glutathionylation” and the heart rate (hypoxic IL-6 Tg mice; [10]) was “No significant differences”. The “left ventricular function (fractional shortening, ejection fraction, posterior wall thickness)” value (hypoxic IL-6 Tg mice; [10]) was “No significant differences”, the “Fulton index (RV/LV+S)” value (hypoxic IL-6 Tg mice; [11]) was “dose-dependent reduction; also recorded: reduced” and the “ISCU in arterioles / CD31+ endothelium” value (hypoxic IL-6 Tg mice; [11]) was “rescued ISCU; also recorded: increased”. The RVSP (hypoxic IL-6 Tg mice; [11]) was “dose-dependent reduction; also recorded: reduced”, the “arteriolar muscularization / pulmonary arteriolar remodeling” value (hypoxic IL-6 Tg mice; [11]) was “reduction; also recorded: reduced” and the “cleaved caspase-3 (CC-3), endothelial apoptosis” value (hypoxic IL-6 Tg mice; [11]) was “reduction; also recorded: decreased”. The “lung total GST enzyme activity” value (hypoxic IL-6 Tg mice; [11]) was “dose-dependent reduction; also recorded: decreased lung GST activity in a dose-dependent manner”, the apoptosis (PASMCs) was “only subtly changed” and the “proliferation (BrdU incorporation)” value (PAECs [4]; PAECs, IL-6/sIL-6R + hypoxia) was “increased proliferation; also recorded: reversing”. For the same compound, the “proliferation (BrdU incorporation)” value (PAECs [4]; hypoxic PAECs) was “reversed the decrease; also recorded: reversed hypoxic alterations”, the “proliferation (BrdU incorporation)” value (PAECs [4]; [12]) was “did not reverse the hypoxia-induced decrease” and the “mitochondrial Complex 1 activity” value (mitochondrial Complex 1 [5]) was “did not affect”. For the same compound, the GSTP1 expression (ISCU [6]; [13]) was “without altering GSTP1 expression”, the “ISCU expression (immunoblot)” value (ISCU [6]; [13]) was “reversed the decrease in ISCU expression; also recorded: reversed the IL-6/R+hypoxic decrease” and the GSTP1 expression (ISCU [6]; hypoxic PAECs) was “did not affect GSTP1 expression”. For the same compound, the ISCU protein levels (ISCU [6]; hypoxic PAECs) was “reversed hypoxia-dependent reduction of ISCU protein levels; also recorded: ISCU levels were increased; also recorded: reversed hypoxic alterations; also recorded: reversed these findings; also recorded: also reversed the hypoxia-induced reduction of ISCU”, the “mitochondrial Complex 1 activity” value (mitochondrial Complex 1 [7]; PAECs, IL-6/sIL-6R + hypoxia) was “partially rescued mitochondrial Complex 1 activity; also recorded: reversing the IL-6/R+hypoxia-mediated decrease” and the “mitochondrial Complex 1 activity” value (mitochondrial Complex 1 [7]; hypoxic PAECs) was “reversed the decrease; also recorded: reversed hypoxic alterations”. For the same compound, the “mitochondrial Complex 1 activity” value (mitochondrial Complex 1 [7]; [12]) was “did not reverse the hypoxia-induced decrease” and the GST activity [8] was “failed to rescue ISCU or alter GST activity; also recorded: did not affect”.
